Results on nine compounds are retold here after BindingDB's records for doi:10.1111/cbdd.12205 (Srtm University, 2014).

Usually IC50 stands for the concentration needed to halve the response being measured.

Test [1] deals with Alpha-glucosidase MAL12 (Saccharomyces cerevisiae (strain ATCC 204508 / S288c), UniProt P53341). Briefly: Alpha-Glucosidase Assay. As for the experimental part: The assay was performed using isolated phenolics from maize, and inhibition was determined according to previously described method.
Alpha-glucosidase MAL12, sequence (P53341 whole entry): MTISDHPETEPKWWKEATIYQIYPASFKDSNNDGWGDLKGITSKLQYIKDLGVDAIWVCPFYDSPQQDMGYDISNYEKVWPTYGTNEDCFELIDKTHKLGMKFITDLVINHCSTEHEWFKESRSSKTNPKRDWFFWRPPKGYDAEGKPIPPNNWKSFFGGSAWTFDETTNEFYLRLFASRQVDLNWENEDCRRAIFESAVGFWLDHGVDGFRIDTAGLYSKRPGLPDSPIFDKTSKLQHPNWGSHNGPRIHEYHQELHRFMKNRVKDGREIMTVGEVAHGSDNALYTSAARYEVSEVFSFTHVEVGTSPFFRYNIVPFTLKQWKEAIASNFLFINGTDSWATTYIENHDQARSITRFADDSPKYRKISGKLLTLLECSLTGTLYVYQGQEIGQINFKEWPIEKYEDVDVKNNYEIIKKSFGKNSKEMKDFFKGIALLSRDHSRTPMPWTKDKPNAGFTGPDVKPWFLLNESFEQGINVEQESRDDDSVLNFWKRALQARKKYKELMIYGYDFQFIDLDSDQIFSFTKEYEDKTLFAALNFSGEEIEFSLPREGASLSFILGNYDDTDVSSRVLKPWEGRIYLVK
Test [2] concerns the target Xanthine dehydrogenase/oxidase (Bos taurus, UniProt P80457). Briefly: Xanthine Oxidase Activity. Particulars: pH 7.6; 25 °C. On the procedure: The enzyme was preincubated with test compound, dissolved in DMSO (1% v/v), for 5 min and the reaction was initiated by the addition of xanthine.

The structures appear in SMILES notation.

Xanthine dehydrogenase/oxidase, sequence (P80457 whole entry): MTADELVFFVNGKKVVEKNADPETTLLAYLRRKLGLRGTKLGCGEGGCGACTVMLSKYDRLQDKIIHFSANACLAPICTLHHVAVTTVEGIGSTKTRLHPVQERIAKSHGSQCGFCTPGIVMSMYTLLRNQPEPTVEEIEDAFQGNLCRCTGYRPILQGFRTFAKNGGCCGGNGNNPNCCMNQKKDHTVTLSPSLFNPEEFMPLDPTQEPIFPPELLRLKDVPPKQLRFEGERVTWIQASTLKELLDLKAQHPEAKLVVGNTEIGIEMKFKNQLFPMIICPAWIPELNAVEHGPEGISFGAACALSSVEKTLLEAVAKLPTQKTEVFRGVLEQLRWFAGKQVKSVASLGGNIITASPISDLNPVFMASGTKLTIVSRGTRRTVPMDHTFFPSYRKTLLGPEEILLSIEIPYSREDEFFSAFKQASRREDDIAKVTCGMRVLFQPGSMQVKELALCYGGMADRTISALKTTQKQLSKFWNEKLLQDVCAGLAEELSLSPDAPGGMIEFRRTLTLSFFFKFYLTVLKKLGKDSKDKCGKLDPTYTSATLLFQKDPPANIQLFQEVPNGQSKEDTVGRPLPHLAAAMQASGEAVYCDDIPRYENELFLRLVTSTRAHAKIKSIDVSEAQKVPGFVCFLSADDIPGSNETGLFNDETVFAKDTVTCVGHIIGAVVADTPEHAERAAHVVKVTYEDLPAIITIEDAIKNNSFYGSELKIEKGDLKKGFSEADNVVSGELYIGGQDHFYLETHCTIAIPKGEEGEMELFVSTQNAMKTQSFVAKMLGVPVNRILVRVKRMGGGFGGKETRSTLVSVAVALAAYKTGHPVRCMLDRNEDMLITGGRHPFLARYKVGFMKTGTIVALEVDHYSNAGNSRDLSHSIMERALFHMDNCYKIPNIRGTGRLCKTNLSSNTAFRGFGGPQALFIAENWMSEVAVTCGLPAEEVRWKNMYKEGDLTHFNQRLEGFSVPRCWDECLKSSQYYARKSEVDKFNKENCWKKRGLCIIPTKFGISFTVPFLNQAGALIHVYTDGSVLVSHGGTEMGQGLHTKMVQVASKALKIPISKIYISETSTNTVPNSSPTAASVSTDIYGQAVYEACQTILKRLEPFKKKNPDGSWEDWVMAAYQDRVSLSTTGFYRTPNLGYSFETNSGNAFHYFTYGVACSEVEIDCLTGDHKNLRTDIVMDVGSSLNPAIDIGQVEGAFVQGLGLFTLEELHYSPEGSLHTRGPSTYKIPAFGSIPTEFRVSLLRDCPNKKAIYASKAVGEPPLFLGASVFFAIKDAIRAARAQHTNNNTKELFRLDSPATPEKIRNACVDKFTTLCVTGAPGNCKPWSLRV

With `O=C(O)c1c(O)cc(O)cc1O` [2,4,6-trihydroxybenzoic acid (M3)], the IC50 in test [1] amounted to 113 µM; in test [2] it was 6.5 µM.

For the compound `CC[C@H]1O[C@@H](Oc2c(-c3ccc(O)c(OC)c3)oc3cc(O)cc(=O)c-3c2O)[C@H](O)[C@@H](O)[C@@H]1O` [3‐{[(2S,3R,4S,5S,6R)‐6‐ethyl‐3,4,5‐trihydroxyoxan‐2‐ yl]oxy}‐5,7‐dihydroxy‐2‐(4‐hydroxy‐3‐ methoxyphenyl)‐4H‐chromen‐4‐one], the IC50 in test [1] was found to be 246 µM; in test [2] it was 8.6 µM.

As for `COc1cc(C(=O)O)ccc1O` [4-hydroxy-3-methoxybenzoic acid], the IC50 came to 205 µM in test [1] and 8.5 µM in test [2].

In the case of `O=c1cc(O)cc2oc(-c3ccc(O)cc3)c(OC3OC(CO)C(O)C(O)C3O)cc1-2` [5,7‐dihydroxy‐2‐(4‐hydroxyphenyl)‐3‐ {[(2S,3R,4S,5S,6R)‐3,4,5‐trihydroxy‐6‐ (hydroxymethyl)oxan‐2‐yl]oxy}‐1λ⁴‐chromen‐1‐ylium], the IC50 was found to be 198 µM in test [1] and 7 µM in test [2].

For the compound `COc1cc(-c2oc3cc(O)cc(=O)c-3cc2OC2OC(CO)C(O)C(O)C2O)ccc1O` [5,7‐dihydroxy‐2‐(4‐hydroxy‐3‐methoxyphenyl)‐3‐ {[(2S,3R,4S,5S,6R)‐3,4,5‐trihydroxy‐6‐ (hydroxymethyl)oxan‐2‐yl]oxy}‐1λ⁴‐chromen‐1‐ylium], the IC50 in test [1] was 260 µM; in test [2] it was 8.7 µM.

Take `O=c1cc(O)cc2oc(-c3ccc(O)c(O)c3)c(OC3OC(CO)C(O)C(O)C3O)cc1-2` (stereo not drawn) [Cyanidin-3-glucoside (M8)]: the figures for the IC50 in test [1] and in test [2] were 221 µM and 7.2 µM, respectively.

As to `COc1cc(/C=C/C(=O)O)ccc1O` [Ferulic acid (M5)], the IC50 in test [1] is 251 µM; in test [2], 8.2 µM.

`O=C(O)c1ccc(O)c(O)c1` [Protocatechuic acid (M1)]: the IC50 is 85.1 µM in test [1] and 5.8 µM in test [2].

In the case of `O=C(O)/C=C/c1ccc(O)cc1` [p-Coumaric Acid], the IC50 in test [1] stood at 90.8 µM; in test [2], 6.8 µM.
